Data: patent publication US9204654B2, “Synergistic combination of a zoxamide compound and zinc pyrithione for dry film protection” (Rohm and Haas Company, priority 2012, dated 2015)

How the values were obtained:
Chlorella sp. ATCC 7516 = test: Algal efficacy test of dry paint film (modified ASTM 5589, 6-well plates); assay type: cell-based; details: 3 weeks; for Total conc: total biocide concentration in paint taken as minimum inhibitory concentration, pass level ≧75% inhibition, for zoxamide the maximum concentration tested, pass not reached
Experimental: (§1) Slurries containing 33% antimicrobial active ingredients (Zoxamide and ZnPT) were post added to a white, acrylic/silicone based outdoor paint free of biocides to give a total active ingredient concentration of 10000 and 1000 ppm respectively. These paints were then diluted with an antimicrobial free acrylic/silicone based paint and mixed to prepare targeted concentrations of antimicrobial compounds for the testing. The total biocides concentrations tested were 125, 250, 500, 1000, 2000 and 5000 ppm. After biocides addition or dilution, the paints were mixed 90 seconds with the horse power shaker (AXEL 75M3372/Agitateur SO-10MI) until uniformity was achieved. Paints containing different antimicrobial compounds at the same levels were mixed together in order to obtain the desired ratio of antimicrobial compounds. After one day, the paints were applied to Schleicher & Schuell filter paper at 280 μm wft and dried for 3 days at room temperature avoiding direct exposure to sunlight. Square discs (1.6 cm×1.6 cm) were cut out from each panel and were used as the substrate for algal efficacy tests. This sample size allowed for an agar border when the sample disc was placed into the well of the test plate.
(§2) Algal efficacy was tested according to modified ASTM 5589 which is a standard accelerated test method for determining resistance of various coatings (including paints) to algal defacement. To accommodate for high-throughput screening, this method was scaled down from petri dishes to 6-well plates. Bold Modified Basal Freshwater Nutrient Solution was used as growth medium. A single coated filter paper coupon was placed with a pair of sterile forceps at the center of the agar plug (on top) with the painted surface facing upwards. Algal inoculums were prepared by mixing equal concentrations (1×10^6 cfu/ml) and equal volumes of exponentially growing algae cultures.
(§3) Each well that contains a tested coupon was inoculated with 1750 μl of algal suspensions (1×10^6 cfu/ml) making sure that the whole surface (paint film as well as the agar surrounding it) was evenly covered. The plates were incubated at room temp (21° C.-25° C.) with cyclic exposure to light and dark phases, for a period of three weeks.
(§4) At the end of the three week incubation period, the samples were scored for percent inhibition regarding visible algal growth compared to the blank sample (0% inhibition).
(§5) The SI is calculated based on F. C.
(§6) SI value of <1 in the formula indicates a synergism of the blended biocides exists.
(§7) The minimal targeted inhibition was set at 75%, meaning a coupon with at least 75% algal growth inhibition was considered as a pass.

[1] = test system: Stichococcus bacillaris SAG 379-1a CCAP 379/1a; test: as above; assay type: cell-based; details: 3 weeks; for Total conc: total biocide concentration in paint taken as minimum inhibitory concentration, pass level ≧75% inhibition, for zoxamide the maximum concentration tested, pass not reached
Experimental: as §1, §2, §3, §4, §5, §6, §7

[2] = total conc 500 ppm in paint, visible algal growth vs blank

[O-][n+]1ccccc1[S][Zn][S]c1cccc[n+]1[O-] [ZnPT, bis(2-pyridylthio)zinc 1,1′-dioxide]
Total conc (Chlorella sp. ATCC 7516): 500 ppm | % inhibition (Chlorella sp. ATCC 7516; [2]): 90% | Total conc [1]: 500 ppm | % inhibition [1, 2]: 85%

CCC(C)(NC(=O)c1cc(Cl)c(C)c(Cl)c1)C(=O)CCl (centres unmarked) [Zoxamide, 3,5-Dichloro-N-(3-chloro-1-ethyl-1-methyl-2-oxopropyl)-4-methylbenzamide]
inhibition at 5000 ppm (Chlorella sp. ATCC 7516; 504 h, total conc 5000 ppm in paint, visible algal growth vs blank): 60% | Total conc (Chlorella sp. ATCC 7516): 5000 ppm | inhibition at 5000 ppm ([1]; Stichococcus bacillaris, 504 h, total conc 5000 ppm in paint, visible algal growth vs blank): 45% | Total conc [1]: 5000 ppm
